Measurements reported in patent US20240335644A1, “TREATMENT OF A DISEASE OF THE GASTROINTESTINAL TRACT WITH AN IMMUNE MODULATORY AGENT RELEASED USING AN INGESTIBLE DEVICE” (BIORA THERAPEUTICS, INC., priority 2017, published 2024).

Tests used:
[1] = Pharmacokinetic study of oral vs intra-cecal tacrolimus: blood, rectal content, GI tissue and luminal content, tissue/plasma ratios (Example 13); parameters: species or system Yorkshire-Cross farm swine; settings: female, Yorkshire-Cross, swine, in vivo, 0.09 mg/kg
Description: (§1) No further randomization procedure was employed.

[2] = Tissue, plasma, rectal and GI content pharmacokinetics of tacrolimus, oral vs intra-cecal ingestible device (Example 10); parameters: species or system Yorkshire-Cross farm swine; settings: in vivo
Experimental: as §1
Animals in Group 1 received an ingestible device containing 0.8 mL of vehicle solution (8000 alcohol, 2000 HCO-60). Animals in Group 2 received orally […] liquid formulation of tacrolimus at 4 mg/0.8 mL per animal (Prograf: 5 mg/mL). Animals in Group 3 received intra-cecally an ingestible device containing tacrolimus at 1 mg in 0.8 mL per ingestible device. Animals in Group 4 received intra-cecally an ingestible device containing tacrolimus at 2 mg in 0.8 mL per ingestible device. Animals in Group 5 received intra-cecally an ingestible device containing tacrolimus at 4 mg in 0.8 mL per ingestible device. To control for potential confounding effects of the surgery, all groups fast on Day −11 at least 24 hr before being subjected to anesthesia followed by surgical placements of a cecal port by a veterinary surgeon at Day −10. All animals were fasted for at least 12 hr prior to dosing on Day 1. Animals were dosed via either intra-cecal dosing (IC) or oral dosing (PO) at Day 1 (between 6-8 p.m.). All animals resumed feeding at approximately 4 hours after dose (11-12 p.m. after dosing).
Animals in Group 1 (Vehicle Control) were administered a single intra-cecal ingestible device containing 0.8 mL Vehicle solution (80% alcohol, 20% castor oil (HCO-60) on Day 1. On Day −10 the animals were anesthetized, and a veterinary surgeon surgically placed an intra-cecal port in each animal. On Day 1, each animal was placed into a sling then a single intra-cecal ingestible device containing 0.8 mL vehicle solution (80% alcohol, 20% castor oil (HCO-60)) is introduced by the veterinary surgeon into the cecum via the cecal port in each animal. Following ingestible device placement, the animals were removed from the slings and placed back into their pens with water. All animals resumed feeding at approximately 4 hours after dose. […] A total of 60 samples were collected.
Approximately 200-400 mg of rectal content were collected, if available, with a fecal swab (Copan Diagnostics Nylon Flocked Dry Swabs, 502CS01). The fecal swab was pre-weighed and weighed after collection in the collection tube (Sterile Tube and Cap No Media, PFPM913S), and the sample weight was recorded. […]
For tissue necropsy, small intestine fluid and cecal fluid were collected separately from all the animals into two separate square plastic bottles, and stored at −20° C. The length and diameter of the cecum and the colon was measured from one animal in each group and recorded for reference. […] All samples were weighed, and the tissue sample weights were recorded. […] Around 3 grams of the total punched sample were collected into a pre-weighed 15-mL conical tube, and the tissue weight was recorded. […]

Ratio Tissue(mean) (ng/g)/AUG(0-12 hr) (ng · hr/ml) ([1]; 12 h): 0
Ratio Tissue(mean) (ng/g)/Trough(12 hr)(ng/ml) ([1]; 12 h): 0
Trough (12 hr) ([1]; 12 h): 0.568 ng/mL
concentration at 12 h ([1]; Trough (12 hr)): 0.568 ± 0.291 ng/mL
luminal content (spiral, transverse, and distal colon) concentrations [2]: Significantly higher
mean concentration of tacrolimus in the cecum tissue and the proximate colon tissue [2]: higher
tissue (spiral and transverse colon) concentrations [2]: Significantly higher
level of tacrolimus in tissue ([2]; po): No measurable level
Structure (SMILES): C=CC[C@@H]1/C=C(\C)C[C@H](C)C[C@H](OC)[C@H]2O[C@@](O)(C(=O)C(=O)N3CCCC[C@H]3C(=O)O[C@H](/C(C)=C/[C@@H]3CC[C@@H](O)[C@H](OC)C3)[C@H](C)[C@@H](O)CC1=O)[C@H](C)C[C@@H]2OC [tacrolimus]
